We go through one compound from patent publication US20240131032A1, “AN ACTIVITY-GUIDED MAP OF ELECTROPHILE-CYSTEINE INTERACTIONS IN PRIMARY HUMAN IMMUNE CELLS” (The Scripps Research Institute, priority 2019, published 2024).

This experiment has as its system primary human T cells. Put plainly: Multidimensional screen for inhibition of T cell activation (IL-2, IFN-γ secretion, CD25, CD69 expression). The conditions noted are these: electrophilic compounds 10 μM each (DMF 50 μM), 24 h, anti-CD3/anti-CD28 activation. The format is cell-based. The method, then:
FIG. 4A-4D is an overview of a multidimensional screen to identify elaborated electrophilic compounds that suppress T cell activation. FIG. 4A is a workflow for T-cell activation screen. Primary human T cells were treated with a focused library of elaborated electrophilic compounds (10 μM, structures of compounds in FIG. 12), a positive control immunosuppressive compound (DMF, 50 μM), or DMSO under TCR-stimulating conditions in 96-well plates pre-coated with 5 μg/mL αCD3 and 2 μg/mL αCD28 for 24 h. T cell activation was measured using a combination of markers, including IL2 and IFNγ secretion, as well as surface expression of CD25 and CD69. T cell viability was measured by flow cytometry using a Fixable Near-IR LIVE/DEAD™ Cell Stain. Compounds were considered as active hits if they reduced IL2 cytokine production by >65% with <15% reduction in T cell viability in the cytotoxicity assay compared to DMSO control. […]
The levels of secreted IL2, IFNγ and TNFα after incubating T cells in the presence of DMSO or electrophilic compounds under TCR-stimulating conditions were measured using DuoSet ELISA cytokine kits (R&D Systems) in clear microplates (R&D Systems) according to manufacturer's instructions and read using a CLARIOstar (BMG Labtech) plate reader (450 nm). All cytokine concentrations were calculated according to the standard curve generated for each experiment.

For the compound `COC(=O)/C=C/C(=O)OC` [DMF, reference compound], the “suppress T cell activation” value is > 65%.
